Reference: ChEMBL document CHEMBL4507305, “Data for DCP probe TP-024” (2021)

Columns and labels:
[1] = target: AP2-associated protein kinase 1 (Homo sapiens) (UniProt Q2M2I8); settings: Compound concentration 1000.0 nM
[2] = test system: Tyrosine-protein kinase ABL1 (Homo sapiens), P00519 [T315I]; settings: Compound concentration 1000.0 nM
[3] = target: Mitogen-activated protein kinase kinase kinase 6 (Homo sapiens) (UniProt O95382); settings: Compound concentration 1000.0 nM
[4] = target: Aurora kinase C (Homo sapiens) (UniProt Q9UQB9); settings: Compound concentration 1000.0 nM
[5] = target: Peripheral plasma membrane protein CASK (Homo sapiens) (UniProt O14936); settings: Compound concentration 1000.0 nM
[6] = target: Cyclin-dependent kinase 7 (Homo sapiens) (UniProt P50613); settings: Compound concentration 1000.0 nM
Chain of Cyclin-dependent kinase 7 (Homo sapiens) (P50613 whole entry): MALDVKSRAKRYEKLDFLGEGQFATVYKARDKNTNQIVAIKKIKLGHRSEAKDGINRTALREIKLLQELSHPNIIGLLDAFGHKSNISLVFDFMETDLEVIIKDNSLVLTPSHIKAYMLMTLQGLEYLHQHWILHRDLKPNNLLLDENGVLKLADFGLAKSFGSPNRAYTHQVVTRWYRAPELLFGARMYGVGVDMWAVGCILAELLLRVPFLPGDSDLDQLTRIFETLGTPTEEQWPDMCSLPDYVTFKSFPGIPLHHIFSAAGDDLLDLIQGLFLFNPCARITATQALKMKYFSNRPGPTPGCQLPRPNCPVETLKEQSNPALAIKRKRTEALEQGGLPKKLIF

[7] = target: Cyclin-dependent kinase-like 5 (Homo sapiens) (UniProt O76039); settings: Compound concentration 1000.0 nM
[8] = target: Citron Rho-interacting kinase (Homo sapiens) (UniProt O14578); settings: Compound concentration 1000.0 nM
[9] = target: Casein kinase I isoform alpha (Homo sapiens) (UniProt P48729); settings: Compound concentration 1000.0 nM
[10] = target: Casein kinase I isoform epsilon (Homo sapiens) (UniProt P49674); settings: Compound concentration 1000.0 nM
[11] = target: Casein kinase II subunit alpha (Homo sapiens) (UniProt P68400); settings: Compound concentration 1000.0 nM
Chain of Casein kinase II subunit alpha (Homo sapiens) (P68400 whole entry, looked up): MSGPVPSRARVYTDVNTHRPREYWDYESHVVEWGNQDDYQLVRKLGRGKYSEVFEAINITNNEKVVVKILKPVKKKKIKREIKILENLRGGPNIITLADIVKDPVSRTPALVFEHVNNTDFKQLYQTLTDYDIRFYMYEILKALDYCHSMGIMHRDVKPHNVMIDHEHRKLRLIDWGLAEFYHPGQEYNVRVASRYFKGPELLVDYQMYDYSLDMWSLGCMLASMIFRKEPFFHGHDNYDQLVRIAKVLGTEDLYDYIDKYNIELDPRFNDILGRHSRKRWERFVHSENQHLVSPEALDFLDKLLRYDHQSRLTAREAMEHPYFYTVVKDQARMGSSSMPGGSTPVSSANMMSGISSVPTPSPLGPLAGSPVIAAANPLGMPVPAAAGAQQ

[12] = target: Serine/threonine-protein kinase MRCK gamma (Homo sapiens) (UniProt Q6DT37); settings: Compound concentration 1000.0 nM
[13] = test system: Epidermal growth factor receptor (Homo sapiens), P00533 [L858R,T790M]; settings: Compound concentration 1000.0 nM
[14] = target: Ephrin type-B receptor 1 (Homo sapiens) (UniProt P54762); settings: Compound concentration 1000.0 nM
[15] = target: Ephrin type-B receptor 2 (Homo sapiens) (UniProt P29323); settings: Compound concentration 1000.0 nM
[16] = target: Receptor tyrosine-protein kinase erbB-3 (Homo sapiens) (UniProt P21860); settings: Compound concentration 1000.0 nM
[17] = target: Fibroblast growth factor receptor 4 (Homo sapiens) (UniProt P22455); settings: Compound concentration 1000.0 nM
[18] = target: Tyrosine-protein kinase FRK (Homo sapiens) (UniProt P42685); settings: Compound concentration 1000.0 nM
[19] = target: Glycogen synthase kinase-3 alpha (Homo sapiens) (UniProt P49840); settings: Compound concentration 1000.0 nM
[20] = target: Homeodomain-interacting protein kinase 2 (Homo sapiens) (UniProt Q9H2X6); settings: Compound concentration 1000.0 nM
[21] = target: Mitogen-activated protein kinase 10 (Homo sapiens) (UniProt P53779); settings: Compound concentration 1000.0 nM
[22] = target: Leucine-rich repeat serine/threonine-protein kinase 2 (Homo sapiens) (UniProt Q5S007); settings: Compound concentration 1000.0 nM
[23] = target: Dual specificity mitogen-activated protein kinase kinase 2 (Homo sapiens) (UniProt P36507); settings: Compound concentration 1000.0 nM
[24] = target: Maternal embryonic leucine zipper kinase (Homo sapiens) (UniProt Q14680); settings: Compound concentration 1000.0 nM
[25] = target: Serine/threonine-protein kinase Nek5 (Homo sapiens) (UniProt Q6P3R8); settings: Compound concentration 1000.0 nM
[26] = test system: Phosphatidylinositol 4,5-bisphosphate 3-kinase catalytic subunit alpha isoform (Homo sapiens), P42336 [E545A]; settings: Compound concentration 1000.0 nM
[27] = test system: Phosphatidylinositol 4,5-bisphosphate 3-kinase catalytic subunit alpha isoform (Homo sapiens), P42336 [I800L]; settings: Compound concentration 1000.0 nM
[28] = target: Serine/threonine-protein kinase D1 (Homo sapiens) (UniProt Q15139); settings: Compound concentration 1000.0 nM
[29] = target: Ribosomal protein S6 kinase alpha-1 (Homo sapiens) (UniProt Q15418); settings: Compound concentration 1000.0 nM
Chain of Ribosomal protein S6 kinase alpha-1 (Homo sapiens) (Q15418 whole entry): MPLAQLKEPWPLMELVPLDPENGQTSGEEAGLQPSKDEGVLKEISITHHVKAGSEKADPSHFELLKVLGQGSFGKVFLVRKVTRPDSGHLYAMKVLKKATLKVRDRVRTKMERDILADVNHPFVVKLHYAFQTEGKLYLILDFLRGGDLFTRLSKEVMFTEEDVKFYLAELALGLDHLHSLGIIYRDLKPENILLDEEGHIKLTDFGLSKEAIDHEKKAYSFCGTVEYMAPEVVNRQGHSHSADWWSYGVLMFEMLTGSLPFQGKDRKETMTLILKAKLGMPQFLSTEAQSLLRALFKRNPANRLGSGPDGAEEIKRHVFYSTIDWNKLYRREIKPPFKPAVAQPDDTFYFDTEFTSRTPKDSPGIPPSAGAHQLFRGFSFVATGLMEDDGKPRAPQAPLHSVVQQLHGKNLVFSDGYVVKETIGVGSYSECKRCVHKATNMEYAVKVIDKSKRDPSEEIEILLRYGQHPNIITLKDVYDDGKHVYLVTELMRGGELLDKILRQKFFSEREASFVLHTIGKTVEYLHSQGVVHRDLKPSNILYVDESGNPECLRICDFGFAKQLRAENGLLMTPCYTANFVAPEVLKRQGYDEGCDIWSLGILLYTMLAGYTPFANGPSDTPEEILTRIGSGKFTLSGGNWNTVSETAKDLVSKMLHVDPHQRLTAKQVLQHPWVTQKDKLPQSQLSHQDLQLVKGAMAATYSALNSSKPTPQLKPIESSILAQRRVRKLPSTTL

[30] = target: Ribosomal protein S6 kinase alpha-3 (Homo sapiens) (UniProt P51812); settings: Compound concentration 1000.0 nM
[31] = target: Serine/threonine-protein kinase Sgk2 (Homo sapiens) (UniProt Q9HBY8); settings: Compound concentration 1000.0 nM
[32] = target: SNF-related serine/threonine-protein kinase (Homo sapiens) (UniProt Q9NRH2); settings: Compound concentration 1000.0 nM
Chain of SNF-related serine/threonine-protein kinase (Homo sapiens) (Q9NRH2 whole entry): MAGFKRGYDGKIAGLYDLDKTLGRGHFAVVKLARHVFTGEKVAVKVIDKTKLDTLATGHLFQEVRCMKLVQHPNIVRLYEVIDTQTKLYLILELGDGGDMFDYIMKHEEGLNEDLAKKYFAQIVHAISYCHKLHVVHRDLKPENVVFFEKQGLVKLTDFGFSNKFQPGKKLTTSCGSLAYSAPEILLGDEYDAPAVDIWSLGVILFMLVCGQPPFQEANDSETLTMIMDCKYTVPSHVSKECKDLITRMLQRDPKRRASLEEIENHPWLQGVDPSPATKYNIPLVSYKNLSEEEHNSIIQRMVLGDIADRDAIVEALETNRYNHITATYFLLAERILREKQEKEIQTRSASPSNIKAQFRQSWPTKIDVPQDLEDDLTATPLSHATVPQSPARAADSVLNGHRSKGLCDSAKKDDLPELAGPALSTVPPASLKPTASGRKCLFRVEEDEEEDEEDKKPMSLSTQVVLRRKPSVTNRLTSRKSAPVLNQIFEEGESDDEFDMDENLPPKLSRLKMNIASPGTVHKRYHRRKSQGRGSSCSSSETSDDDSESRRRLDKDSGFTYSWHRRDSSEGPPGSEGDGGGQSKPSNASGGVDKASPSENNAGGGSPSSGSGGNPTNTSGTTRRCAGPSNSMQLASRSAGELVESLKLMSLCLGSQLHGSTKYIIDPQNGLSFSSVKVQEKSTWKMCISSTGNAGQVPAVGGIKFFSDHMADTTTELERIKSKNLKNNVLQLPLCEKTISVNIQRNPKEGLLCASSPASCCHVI

[33] = target: STE20/SPS1-related proline-alanine-rich protein kinase (Homo sapiens) (UniProt Q9UEW8); settings: Compound concentration 1000.0 nM
[34] = target: Tyrosine-protein kinase SYK (Homo sapiens) (UniProt P43405); settings: Compound concentration 1000.0 nM
[35] = target: Phosphatidylinositol 3-kinase catalytic subunit type 3 (Homo sapiens) (UniProt Q8NEB9); settings: Compound concentration 1000.0 nM
[36] = target: Serine/threonine-protein kinase WNK1 (Homo sapiens) (UniProt Q9H4A3); settings: Compound concentration 1000.0 nM
[37] = target: Serine/threonine-protein kinase WNK3 (Homo sapiens) (UniProt Q9BYP7); settings: Compound concentration 1000.0 nM
Chain of Serine/threonine-protein kinase WNK3 (Homo sapiens) (Q9BYP7 whole entry): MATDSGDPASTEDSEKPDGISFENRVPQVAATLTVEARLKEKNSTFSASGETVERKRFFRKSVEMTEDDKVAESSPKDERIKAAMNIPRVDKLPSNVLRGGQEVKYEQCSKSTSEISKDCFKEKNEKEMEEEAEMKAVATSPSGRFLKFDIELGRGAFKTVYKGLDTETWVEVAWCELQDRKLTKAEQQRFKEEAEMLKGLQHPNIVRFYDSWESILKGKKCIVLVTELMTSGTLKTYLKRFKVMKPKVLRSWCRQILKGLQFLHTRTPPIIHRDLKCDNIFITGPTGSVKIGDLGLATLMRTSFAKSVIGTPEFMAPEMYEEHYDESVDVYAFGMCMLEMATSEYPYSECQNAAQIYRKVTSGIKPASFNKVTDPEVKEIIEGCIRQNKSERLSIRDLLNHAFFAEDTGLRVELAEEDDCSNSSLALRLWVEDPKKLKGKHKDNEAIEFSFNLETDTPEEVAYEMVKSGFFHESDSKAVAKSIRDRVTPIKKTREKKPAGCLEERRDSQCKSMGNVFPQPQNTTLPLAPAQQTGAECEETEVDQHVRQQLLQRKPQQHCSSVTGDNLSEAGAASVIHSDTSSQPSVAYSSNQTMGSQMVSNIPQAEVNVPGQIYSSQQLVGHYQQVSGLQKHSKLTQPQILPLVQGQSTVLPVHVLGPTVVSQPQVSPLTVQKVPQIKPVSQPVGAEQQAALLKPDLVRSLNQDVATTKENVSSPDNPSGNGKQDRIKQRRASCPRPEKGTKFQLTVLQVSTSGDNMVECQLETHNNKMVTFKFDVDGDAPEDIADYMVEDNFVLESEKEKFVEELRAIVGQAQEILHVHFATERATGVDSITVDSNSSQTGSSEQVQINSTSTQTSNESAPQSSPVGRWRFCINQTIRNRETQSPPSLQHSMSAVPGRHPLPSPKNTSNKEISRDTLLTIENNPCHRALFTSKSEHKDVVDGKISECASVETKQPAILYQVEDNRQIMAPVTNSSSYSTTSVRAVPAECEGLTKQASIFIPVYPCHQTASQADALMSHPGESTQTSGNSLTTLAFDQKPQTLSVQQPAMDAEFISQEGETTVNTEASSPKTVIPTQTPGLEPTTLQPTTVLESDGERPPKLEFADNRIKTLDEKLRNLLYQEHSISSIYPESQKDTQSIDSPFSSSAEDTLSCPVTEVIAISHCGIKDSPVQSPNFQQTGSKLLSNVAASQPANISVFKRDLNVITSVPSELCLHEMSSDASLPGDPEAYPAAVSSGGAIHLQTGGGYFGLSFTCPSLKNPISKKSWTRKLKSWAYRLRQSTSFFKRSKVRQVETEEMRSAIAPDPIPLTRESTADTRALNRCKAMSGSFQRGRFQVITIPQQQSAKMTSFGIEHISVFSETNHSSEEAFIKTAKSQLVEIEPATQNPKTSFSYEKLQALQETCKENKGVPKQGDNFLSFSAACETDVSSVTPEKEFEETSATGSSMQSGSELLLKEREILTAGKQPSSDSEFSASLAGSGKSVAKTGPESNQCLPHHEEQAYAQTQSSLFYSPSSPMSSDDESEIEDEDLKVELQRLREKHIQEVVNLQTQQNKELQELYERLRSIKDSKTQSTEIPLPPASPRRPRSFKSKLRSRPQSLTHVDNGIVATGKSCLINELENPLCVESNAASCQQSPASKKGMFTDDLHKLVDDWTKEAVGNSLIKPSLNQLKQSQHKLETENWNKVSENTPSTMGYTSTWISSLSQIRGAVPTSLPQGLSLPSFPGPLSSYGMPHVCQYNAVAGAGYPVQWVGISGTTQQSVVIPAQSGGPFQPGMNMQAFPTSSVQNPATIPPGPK

[38] = target: Serine/threonine-protein kinase 32B (Homo sapiens) (UniProt Q9NY57); settings: Compound concentration 1000.0 nM
Chain of Serine/threonine-protein kinase 32B (Homo sapiens) (Q9NY57 whole entry): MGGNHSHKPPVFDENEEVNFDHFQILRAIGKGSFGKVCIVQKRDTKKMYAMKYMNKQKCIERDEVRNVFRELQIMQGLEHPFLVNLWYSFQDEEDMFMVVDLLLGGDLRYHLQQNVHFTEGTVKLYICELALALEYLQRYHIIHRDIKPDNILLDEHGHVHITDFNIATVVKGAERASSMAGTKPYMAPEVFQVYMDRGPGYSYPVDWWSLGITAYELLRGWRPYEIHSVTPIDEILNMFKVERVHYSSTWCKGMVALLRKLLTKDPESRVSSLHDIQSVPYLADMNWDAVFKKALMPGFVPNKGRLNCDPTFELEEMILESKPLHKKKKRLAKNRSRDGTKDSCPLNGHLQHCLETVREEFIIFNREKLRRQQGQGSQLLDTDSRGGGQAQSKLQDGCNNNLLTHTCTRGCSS

[39] = target: 5-hydroxytryptamine receptor 1A (Homo sapiens) (UniProt P08908); settings: Compound concentration 10.0 uM
Chain of 5-hydroxytryptamine receptor 1A (Homo sapiens) (P08908 whole entry): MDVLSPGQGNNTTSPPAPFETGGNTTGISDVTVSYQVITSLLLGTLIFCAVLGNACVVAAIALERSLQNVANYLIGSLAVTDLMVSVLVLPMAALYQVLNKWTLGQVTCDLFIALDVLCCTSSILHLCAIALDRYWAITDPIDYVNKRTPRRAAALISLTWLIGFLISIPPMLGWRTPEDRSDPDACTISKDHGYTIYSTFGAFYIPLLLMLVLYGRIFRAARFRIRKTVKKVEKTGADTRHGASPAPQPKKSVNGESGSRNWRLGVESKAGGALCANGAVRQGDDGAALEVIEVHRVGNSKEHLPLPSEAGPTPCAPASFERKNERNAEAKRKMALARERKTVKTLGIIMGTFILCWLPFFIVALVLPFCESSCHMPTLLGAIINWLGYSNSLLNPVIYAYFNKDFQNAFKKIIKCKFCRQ

[40] = target: D(2) dopamine receptor (Homo sapiens) (UniProt P14416); settings: Compound concentration 10.0 uM
[41] = target: T1, GABA-A receptor; anion channel (Rattus norvegicus) (UniProt O09028+P15431+P18506+P18508+P19969+P20236+P23574+P23576+P28471+P28473+P30191+P62813+P63079+P63138+Q91ZM7+Q9ES14); settings: Compound concentration 10.0 uM
[42] = target: T1, GABA-A receptor; anion channel (Rattus norvegicus); settings: Compound concentration 10.0 uM; remark: listed apart in the source

Cc1cc(-n2nc(Cc3cc(F)cc(C(F)(F)F)c3)nc2C)ccc1C(N)=O [TP-024]
inactive: residual activity [1] 100% | residual activity [2] 100% | residual activity [3] 100% | residual activity [4] 100% | residual activity [5] 100% | residual activity [6] 100% | residual activity [7] 100% | residual activity [8] 95% | residual activity [9] 100% | residual activity [10] 100% | residual activity [11] 100% | residual activity [12] 100% | residual activity [13] 90% | residual activity [14] 97% | residual activity [15] 100% | residual activity [16] 100% | residual activity [17] 100% | residual activity [18] 100% | residual activity [19] 97% | residual activity [20] 100% | residual activity [21] 100% | residual activity [22] 99% | residual activity [23] 100% | residual activity [24] 100% | residual activity [25] 77% | residual activity [26] 100% | residual activity [27] 70% | residual activity [28] 92% | residual activity [29] 100% | residual activity [30] 95% | residual activity [31] 100% | residual activity [32] 100% | residual activity [33] 100% | residual activity [34] 87% | residual activity [35] 100% | residual activity [36] 100% | residual activity [37] 100% | residual activity [38] 100% | inhibition [39] -4.42% | inhibition [40] 0.68% | inhibition [41] 12.8% | inhibition [42] 14.4%

Cc1nc(Cc2cccc(C(F)(F)F)c2)sc1-c1ccc(C(N)=O)nc1 [TP-024n]
active: residual activity [25] 35%
inactive: residual activity [1] 96% | residual activity [2] 100% | residual activity [3] 99% | residual activity [4] 100% | residual activity [5] 85% | residual activity [6] 90% | residual activity [7] 100% | residual activity [8] 65% | residual activity [9] 99% | residual activity [10] 100% | residual activity [11] 100% | residual activity [12] 100% | residual activity [13] 87% | residual activity [14] 100% | residual activity [15] 86% | residual activity [16] 100% | residual activity [17] 100% | residual activity [18] 100% | residual activity [19] 82% | residual activity [20] 100% | residual activity [21] 100% | residual activity [22] 92% | residual activity [23] 98% | residual activity [24] 100% | residual activity [26] 100% | residual activity [27] 56% | residual activity [28] 93% | residual activity [29] 100% | residual activity [30] 100% | residual activity [31] 95% | residual activity [32] 84% | residual activity [33] 100% | residual activity [34] 100% | residual activity [35] 100% | residual activity [36] 100% | residual activity [37] 61% | residual activity [38] 69% | inhibition [39] -2.04% | inhibition [40] -5.26% | inhibition [41] 14.8% | inhibition [42] 9.72%
